Results as given in patent US7892492B2, “Flow-through apparatus for microscopic investigation of dissolution of pharmaceutical solids” (University of Connecticut, priority 2006, dated 2011).

Legend:
Type in all cases: physicochemical
[1] = Rotating disk dissolution in HCl
Excerpt: Dissolution data are often collected in terms of amount dissolved curve vs. time. This is the case for rotating disk experiments due to the nature of the apparatus, i.e., batch operation. In rotating disk experiments, a change in solid form (such as salt form, polymorph form, amorphous to crystalline form) is indicated by a change in slope in a cumulative dissolution curve. A change of slope signifies a change in dissolution rate. […] In FIG. 20, the change in slope occurs at approximately 45 minutes, although it is difficult to determine an exact time due to some curvature in the plot.
These phenomena can be better understood by plotting a dissolution rate vs. time curve. For the rotating disk, data are still collected in a cumulative manner; however, further data treatment makes a change in slope easier to recognize. From a cumulative amount dissolved curve the slope between each set of adjacent points is taken and plotted against the midpoint of time. Using this method, it is easier to point out the time when the dissolution rate changes and determine the terminal dissolution rate. The resultant plot is a dissolution rate vs. time curve.

[2] = Dissolution in flow-through apparatus (flow cell), 10−4N NaOH; settings: for Dissolution Rate: 10−4N NaOH, room temperature
Description: In order to test an apparatus associated with the present disclosure against a rotating disk apparatus, the dissolution rate of Triamterene free base was determined in dilute NaOH. The dissolution media was chosen to be 10−4N NaOH, since at alkaline pH, the Triamterene free base is not ionized. This condition makes theoretical comparisons of flux easier since it is not necessary to account for multiple species (ionized and unionized species) and Levich's mathematical solution for dissolution from a rotating disk transport is valid. Dissolution rate was also studied in an exemplary flow-through apparatus associated with the present disclosure. The dissolution medium (10−4N NaOH) was run continuously at 0.5, 1.5, 7.0, 20 mL/min. Triamterene free base was compressed into the insert by a mini-vise. Since a pressure reading is not possible on this vise, the mass of the drug in the insert was recorded and the porosity was calculated by using the dimensions of the insert, thickness of the drug compact and true density of the Triamterene free base as measured by pycnometry. Porosity of 10% or less was considered acceptable. Triamterene was detected via fluorescence with excitation at 370 nm and emission at 432 nm. The rotating disk results are shown in FIG. 29 for each rotation speed. As expected, an increase in rotation speed leads to an increase in dissolution rate. The dissolution rate for the entire experiment is represented by the slope of this line. Because this is the Triamterene free base dissolving in alkaline conditions, it is not expected to undergo a conversion, thus a constant dissolution rate vs. time curve is expected. However, interesting results can be seen in FIG. 30 showing dissolution rate vs. time data. […] The data from FIGS. 32 and 33 were used to estimate the dissolution rate at each volumetric flow rate for FIG. 34.

[3] = Flow-through apparatus dissolution in HCl with stereomicroscope imaging; settings: flow cell
Description: A flow-through apparatus associated with the present disclosure was tested using a model compound. Triamterene free base was chosen as the model compound as this is readily available and there is literature available on its various salt forms. An advantage of an apparatus associated with the present disclosure is that the user is able to observe the solid during dissolution. The following experimental results are preliminary data for a flow-through apparatus experiment (before the compression step was controlled). Approximately 20 mg of a sample drug was compressed in an insert for dissolution. Flow-through experiments were performed using 0.1N or 0.001N HCl as the dissolution medium pumped through a dissolution channel at 5 ml/min and 25 ml/min. Triamterene concentration in the effluent was measured by UV analysis at 370 nm. […] With the flow cell mounted in a jig so that it is tilted slightly, it is possible to capture images that show the face of the drug compact that is exposed to the fluid as well as the “control” dry surface face adjacent to the glass plate. Flow is from left to right in the following figures of Triamterene Free Base Dissolution in 0.1 N HCl at 25 ml/min: FIG. 23 at t=0; FIG. 24 at t=5 min; FIG. 25 at t=10 min; FIG. 26 at t=15 min; FIG. 27 at t=20 min; FIG. 28 at 25 minutes.

[4] = Rotating disk (Wood's die) dissolution, 10−4N NaOH; settings: for Dissolution Rate: rotating disk, 900 ml 10−4N NaOH, room temperature
Description: In order to test an apparatus associated with the present disclosure against a rotating disk apparatus, the dissolution rate of Triamterene free base was determined in dilute NaOH. The dissolution media was chosen to be 10−4N NaOH, since at alkaline pH, the Triamterene free base is not ionized. This condition makes theoretical comparisons of flux easier since it is not necessary to account for multiple species (ionized and unionized species) and Levich's mathematical solution for dissolution from a rotating disk transport is valid. Rotating disk dissolution was run in a standard dissolution apparatus at 25, 80 and 200 rpm. The dissolution medium was 900 ml of 10−4 N NaOH at room temperature (since the flow cell has no temperature control at this time). The Wood's die apparatus has an exposed drug surface area of 0.5 cm^2. Approximately 125 mg of Triamterene free base was compressed into the die using a Carver Press. The compression conditions were 5000 lbs of force for 30 seconds. Triamterene was detected via fluorescence with excitation at 370 nm and emission at 432 nm. The rotating disk results are shown in FIG. 29 for each rotation speed. As expected, an increase in rotation speed leads to an increase in dissolution rate. The dissolution rate for the entire experiment is represented by the slope of this line. Because this is the Triamterene free base dissolving in alkaline conditions, it is not expected to undergo a conversion, thus a constant dissolution rate vs. time curve is expected. However, interesting results can be seen in FIG. 30 showing dissolution rate vs. time data. […] The data from FIGS. 32 and 33 were used to estimate the dissolution rate at each volumetric flow rate for FIG. 34.

Row | Compound | Time of change in slope of cumulative amount dissolved vs. time curve ([1]; rotating disk, 0.001N HCl, 50 rpm, preliminary data (FIG. 20)) | Course of dissolution rate with time ([2]; 0.5-20 mL/min, 10−4N NaOH (FIG. 33)) | Dissolution Rate ([2]; flow rate 0.5 ml/min) | Dissolution Rate ([2]; flow rate 1.5 ml/min) | Dissolution Rate ([2]; flow rate 7.0 ml/min) | Dissolution Rate ([2]; flow rate 20 ml/min) | Observable changes of the solid in stereomicroscope images ([3]; 0.001 HCl, 5 mL/min) | Time after which the dissolution rate is relatively constant ([3]; 0.001 HCl, 5 mL/min (FIG. 22)) | Salt transformation observed during dissolution ([3]; 0.1N HCl, 25 ml/min) | Time until which the new solid grows before it is washed away with the fluid ([3]; 0.1N HCl, 25 ml/min) | Observation of drug compact during dissolution ([3]; 0.1N HCl, 25 ml/min, after five minutes (FIG. 24)) | Course of dissolution rate with time ([4]; rotating disk, 25, 80 and 200 rpm, 10−4N NaOH (FIG. 30)) | Dissolution Rate ([4]; 25 rpm) | Dissolution Rate ([4]; 80 rpm) | Dissolution Rate ([4]; 200 rpm) | Comparison of dissolution rate between HCl concentrations ([1]; rotating disk, 0.1, 0.01 or 0.001N HCl) | Rank order of dissolution rate with pH ([1]; rotating disk, chloride ion concentration normalized to 0.1N HCl)
1 | Nc1nc(N)c2nc(-c3ccccc3)c(N)nc2n1 [Triamterene free base, Triamterene] | approximately 45 minutes | decrease of dissolution rate with time | 1.1 ug/cm^2min | 1.5 ug/cm^2min | 2.7 ug/cm^2min | 4.7 ug/cm^2min | did not reveal any observable changes | 25 min | significant hydrochloride salt growth on the drug surface | 15 min | nucleation and significant crystal growth has occurred | initial decrease in the dissolution rate with time | 0.8 ug/cm^2min | 1.5 ug/cm^2min | 2.3 ug/cm^2min | – | –
2 | Triamterene citrate | – | – | – | – | – | – | – | – | – | – | – | – | – | – | – | highest dissolution rate in 0.01N HCl | 0.1N>0.01N>0.001N HCl
